From patent US10081633B2, “Adenylyl cyclase inhibitors, pharmaceutical compositions and method of use thereof” (priority 2016, dated 2018)

Columns and labels:
type V adenylyl cyclase = molecular target: T1, type V adenylyl cyclase (Homo sapiens, UniProt O95622); assay: Adenylyl cyclase membrane assay, type V (cAMP ELISA); format: biochemical, mouse; conditions: cardiomyocyte membrane preparations from transgenic mice; forskolin 50 μM
T1 construct: from tissue; host or cells: heart (cardiomyocyte) membrane preparations from transgenic mice overproducing type V adenylyl cyclase
Experimental: (§1) Compounds were assayed for their ability to attenuate cyclic AMP (cAMP) production in cardiomyocyte membrane preparations isolated from transgenic mice. Transgenic mice were separately bred to overproduce type V adenylyl cyclase, type VI adenylyl cyclase and type II adenylyl cyclase. cAMP levels were determined using a Cyclic AMP Competitive ELISA kit purchased from ThermoFischer Scientific (Cat# EMSCAMPL).
(§2) Buffer A (pH 8) was prepared comprising final concentrations of the following: 50 mM Tris, 1 mM EGTA, 1 mM EDTA, 1 mM DTT, 100 mM sucrose, 20 μg/mL TPCK (protease inhibitor), 20 μg/mL TLCK (protease inhibitor), 1 mM PMSF (protease inhibitor), 10 μg/mL leupeptin (protease inhibitor) and 10 μg/mL aprotinin (protease inhibitor).
(§3) Buffer B (pH 8) was prepared comprising final concentrations of the following: 50 mM Tris, 1 mM EDTA, 100 mM sucrose, 0.2 mM PMSF (protease inhibitor), 2 μg/mL leupeptin (protease inhibitor) and 2 μg/mL aprotinin (protease inhibitor).
Hearts were surgically excised from transgenic mice. Each isolated heart was treated with 3-4 mL of buffer A and cooled to 0 deg C. for 5 minutes. Treated hearts were homogenized for 10 seconds using a Polytron homogenizer cooled to 0 deg C. and set to speed 6. Homogenized hearts were centrifuged at 500×g at 4 deg C. for 10 minutes. Supernatants were transferred to ultracentrifuge tubes and centrifuged at 35,000 rpm at 4 deg C. for 40 minutes. Isolated pellets were combined with buffer B (500 μL) and sonicated to a suspension. Protein concentration was determined using a commercial Bradford assay kit. Membrane preparations were stored at −80 deg C.
Buffer R (pH 8) was prepared comprising final concentrations in water of the following: HEPES (20 mM), magnesium chloride (5 mM), EDTA (0.5 mM), ATP (0.1 mM), phospho creatinine (1 mM), creatinine phosphokinase (8 units/mL), IBMX (200 μM), forskolin (50 μM) or control (DMSO in water).
Inhibitor solutions were prepared by dilution of stock solutions of inhibitors (10 mM in DMSO) to a final concentration of 100 μM in water. Serial dilutions with water were subsequently made in order to determine IC50 values.
Reaction mixtures were prepared comprising buffer R (10 μL), inhibitor or control (10 μL), and water (75 μL).
A reaction mixture was pre-incubated at 30 deg C. for 5 minutes. A membrane preparation (e.g. 5 μL for type V Adenylyl Cyclase comprising 2 μg of membrane protein per 5 μL of preparation) was added and the mixture was incubated at 30 deg C. for 15 minutes. The reaction was stopped by addition of 0.1 M hydrochloric acid (100 μL) and cooled to 0 deg C. The resulting mixture was incubated at 0 deg C. for 60 minutes. The cAMP concentration of the supernatant was measured using a Cyclic AMP Competitive ELISA kit purchased from ThermoFischer Scientific.

[1] = test system: Mouse Ischemia and Reperfusion Model; assay: Mouse ischemia and reperfusion model, infarct size; format: in vivo; conditions: mice; 30 min CAO, 24 hr CAR; i.v. infusion 0.06 mg/kg delivered at CAR; vehicle 33%
Experimental: 3-4-month-old male CS7BL/6 mice purchased from Jack-son Laboratory were anesthetized by an injection of 2% 2,2,2-tribromomethanol ([…] i.p.; Aldrich Chemical, St. Louis, Mo.). The mice were then orally intubated and mechanically ventilated. The heart was accessed via a thoracotomy at the fourth intercostals space and 7-0 silk suture passed under the left anterior descending coronary artery (LAD) at the point where it emerged from under the left atrial flap. Myocardial ischemia was achieved by occluding the LAD against a 22-gauge J-shaped stainless-steel probe and verified by visually noting the regional akinesis and blanching of the left ventricle. The chest was closed in layers, with the long end of the probe remaining outside the chest wall, allowing the animals to be removed from the ventilator. After 30 min. of ischemia, reperfusion was initiated by carefully pulling the probe out from the ligature and then removing it from the chest cavity. Following the surgical procedure, the mice were allowed to recover on a warmed surface, with supplemental oxygen delivered from a nose cone. I/R were verified by three lead electrocardiograms, which were obtained preoperatively, at the end of the ischemic interval and immediately after the initiation of reperfusion. Mice fully recovered from the surgical procedure were returned to standard animal housing conditions. […]

[2] = test system: H9c2(2-1) myoblast cell line; assay: Adenylyl cyclase cell-based assay, isoproterenol-stimulated cAMP; conditions: Rattus norvegicus; H9c2 cells, isoproterenol 5 mM
Experimental: (§4) H9c2(2-1) myoblast cell line was obtained from ATCC (CRL-1446). Cells (10^5 cells/mL) were seeded in 24-well plates at 5×10^4 cells per well. Cells were allowed to attach over 24 hours. The cells were then washed with PBS. Serum-free DMEM supplemented with 20 mM HEPES and 0.5 mM IBMX was added and the cells were incubated at 37 deg C. for 20 minutes. An Adenylyl Cyclase inhibitor (0.001-100 μM in DMSO/water with DMSO concentration <1%) was added and the mixture was incubated at 37 deg C. for 10 minutes. Forskolin (50 μM in DMSO/water with DMSO concentration <1%) was added and the mixture was incubated at 37 deg C. for 10 minutes. As an alternative to forskolin, isoproterenol (5 mM in DMSO/water with DMSO concentration <1%) was added and the mixture was incubated at 37 deg C. for 15 minutes. The media was removed and the cells were lysed by addition of 0.1 M hydrochloric acid (200 μL) 0 deg C. Lysed mixtures were maintained at 0 deg C. for 10-20 minutes and the plates were then centrifuged at 3,000×g for 5 minutes. cAMP levels in the supernatant were measured using the ThermoScientific cAMP competitive ELISA (EMSCAMPL) kit with samples acetylated in glass or polypropylene tubes.

[3] = test system: H9c2(2-1) myoblast cell line; assay: Adenylyl cyclase cell-based assay, forskolin-stimulated cAMP; conditions: Rattus norvegicus; H9c2 cells, forskolin 50 μM
Experimental: as §4

type VI adenylyl cyclase = molecular target: T2, type VI adenylyl cyclase (Homo sapiens, UniProt O43306); assay: Adenylyl cyclase membrane assay, type VI (cAMP ELISA); format: biochemical, mouse; conditions: cardiomyocyte membrane preparations from transgenic mice; forskolin 50 μM
T2 construct: from tissue; host or cells: heart (cardiomyocyte) membrane preparations from transgenic mice overproducing type VI adenylyl cyclase
Experimental: as §1, §2, §3
Hearts were surgically excised from transgenic mice. Each isolated heart was treated with 3-4 mL of buffer A and cooled to 0 deg C. for 5 minutes. Treated hearts were homogenized for 10 seconds using a Polytron homogenizer cooled to 0 deg C. and set to speed 6. Homogenized hearts were centrifuged at 500×g at 4 deg C. for 10 minutes. Supernatants were transferred to ultracentrifuge tubes and centrifuged at 35,000 rpm at 4 deg C. for 40 minutes. Isolated pellets were combined with buffer B (500 μL) and sonicated to a suspension. Protein concentration was determined using a commercial Bradford assay kit. Membrane preparations were stored at −80 deg C. […]
(§5) A reaction mixture was pre-incubated at 30 deg C. for 5 minutes. […] The cAMP concentration of the supernatant was measured using a Cyclic AMP Competitive ELISA kit purchased from ThermoFischer Scientific.

type II adenylyl cyclase = molecular target: T3, type II adenylyl cyclase (Homo sapiens, UniProt Q08462); assay: Adenylyl cyclase membrane assay, type II (cAMP ELISA); format: biochemical, mouse; conditions: cardiomyocyte membrane preparations from transgenic mice; forskolin 50 μM
T3 construct: from tissue; host or cells: heart (cardiomyocyte) membrane preparations from transgenic mice overproducing type II adenylyl cyclase
Experimental: as §1, §2, §3
Hearts were surgically excised from transgenic mice. Each isolated heart was treated with 3-4 mL of buffer A and cooled to 0 deg C. for 5 minutes. […] Protein concentration was determined using a commercial Bradford assay kit. […]
as §5

T1 sequence (O95622 whole entry): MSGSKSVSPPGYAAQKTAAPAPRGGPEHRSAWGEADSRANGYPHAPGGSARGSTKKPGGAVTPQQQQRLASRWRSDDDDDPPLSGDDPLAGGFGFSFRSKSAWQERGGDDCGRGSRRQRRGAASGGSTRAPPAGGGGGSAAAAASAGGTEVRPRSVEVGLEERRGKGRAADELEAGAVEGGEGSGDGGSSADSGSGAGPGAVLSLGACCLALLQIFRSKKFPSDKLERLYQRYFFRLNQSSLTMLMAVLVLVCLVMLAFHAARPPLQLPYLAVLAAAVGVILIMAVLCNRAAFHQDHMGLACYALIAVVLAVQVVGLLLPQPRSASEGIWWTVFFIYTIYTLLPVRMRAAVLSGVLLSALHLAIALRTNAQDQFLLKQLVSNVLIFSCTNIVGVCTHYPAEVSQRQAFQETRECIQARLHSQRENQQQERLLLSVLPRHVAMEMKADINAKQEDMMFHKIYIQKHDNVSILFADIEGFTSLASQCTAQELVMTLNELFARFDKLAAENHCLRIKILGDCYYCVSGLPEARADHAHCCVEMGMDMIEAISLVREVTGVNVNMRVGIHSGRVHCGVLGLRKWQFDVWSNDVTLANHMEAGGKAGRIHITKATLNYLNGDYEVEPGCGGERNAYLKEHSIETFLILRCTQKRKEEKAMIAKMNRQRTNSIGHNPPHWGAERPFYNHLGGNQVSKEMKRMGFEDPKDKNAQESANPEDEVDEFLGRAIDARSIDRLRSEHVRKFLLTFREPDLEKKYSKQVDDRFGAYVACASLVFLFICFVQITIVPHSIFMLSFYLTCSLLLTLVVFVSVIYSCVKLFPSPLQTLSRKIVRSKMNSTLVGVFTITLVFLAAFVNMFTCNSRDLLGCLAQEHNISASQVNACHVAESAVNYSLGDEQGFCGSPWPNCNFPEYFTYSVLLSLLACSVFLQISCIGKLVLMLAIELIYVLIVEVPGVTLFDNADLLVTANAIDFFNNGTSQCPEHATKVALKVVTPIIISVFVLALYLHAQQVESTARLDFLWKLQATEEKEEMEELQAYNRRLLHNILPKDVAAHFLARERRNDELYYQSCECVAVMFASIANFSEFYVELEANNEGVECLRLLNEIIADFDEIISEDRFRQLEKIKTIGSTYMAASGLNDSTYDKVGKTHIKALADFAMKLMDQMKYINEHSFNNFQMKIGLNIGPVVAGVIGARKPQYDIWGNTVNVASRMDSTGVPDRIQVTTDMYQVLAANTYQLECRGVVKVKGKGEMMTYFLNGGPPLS
T2 sequence (O43306 whole entry): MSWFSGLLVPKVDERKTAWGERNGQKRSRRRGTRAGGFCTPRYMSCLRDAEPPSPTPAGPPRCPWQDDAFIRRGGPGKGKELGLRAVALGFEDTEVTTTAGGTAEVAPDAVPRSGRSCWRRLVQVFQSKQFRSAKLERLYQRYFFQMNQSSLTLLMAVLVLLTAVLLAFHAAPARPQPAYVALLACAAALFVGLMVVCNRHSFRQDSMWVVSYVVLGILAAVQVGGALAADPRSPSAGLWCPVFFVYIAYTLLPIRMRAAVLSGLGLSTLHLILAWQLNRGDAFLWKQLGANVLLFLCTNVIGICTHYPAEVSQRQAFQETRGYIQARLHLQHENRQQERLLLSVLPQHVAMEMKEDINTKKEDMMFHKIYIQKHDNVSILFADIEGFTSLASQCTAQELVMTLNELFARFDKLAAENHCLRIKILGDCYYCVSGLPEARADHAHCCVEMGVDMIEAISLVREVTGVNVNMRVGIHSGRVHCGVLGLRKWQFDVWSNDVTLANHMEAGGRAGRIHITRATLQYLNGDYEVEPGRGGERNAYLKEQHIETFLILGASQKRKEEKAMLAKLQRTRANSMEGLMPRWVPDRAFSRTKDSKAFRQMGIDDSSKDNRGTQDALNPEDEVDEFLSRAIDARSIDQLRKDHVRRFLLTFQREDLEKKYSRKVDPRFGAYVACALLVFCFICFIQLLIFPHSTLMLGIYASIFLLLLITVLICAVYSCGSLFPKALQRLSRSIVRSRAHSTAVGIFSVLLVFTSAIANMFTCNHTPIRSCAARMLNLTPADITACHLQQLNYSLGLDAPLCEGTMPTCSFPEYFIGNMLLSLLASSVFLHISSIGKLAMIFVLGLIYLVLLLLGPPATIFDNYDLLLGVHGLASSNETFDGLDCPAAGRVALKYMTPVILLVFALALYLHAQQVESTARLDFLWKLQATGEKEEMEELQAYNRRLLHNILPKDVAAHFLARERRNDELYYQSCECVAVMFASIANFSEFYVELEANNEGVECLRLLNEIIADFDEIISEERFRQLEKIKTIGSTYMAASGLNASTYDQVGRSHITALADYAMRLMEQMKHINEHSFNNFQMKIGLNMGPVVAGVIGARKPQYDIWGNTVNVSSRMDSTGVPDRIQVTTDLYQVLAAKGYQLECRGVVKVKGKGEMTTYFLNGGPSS
T3 sequence (Q08462 whole entry): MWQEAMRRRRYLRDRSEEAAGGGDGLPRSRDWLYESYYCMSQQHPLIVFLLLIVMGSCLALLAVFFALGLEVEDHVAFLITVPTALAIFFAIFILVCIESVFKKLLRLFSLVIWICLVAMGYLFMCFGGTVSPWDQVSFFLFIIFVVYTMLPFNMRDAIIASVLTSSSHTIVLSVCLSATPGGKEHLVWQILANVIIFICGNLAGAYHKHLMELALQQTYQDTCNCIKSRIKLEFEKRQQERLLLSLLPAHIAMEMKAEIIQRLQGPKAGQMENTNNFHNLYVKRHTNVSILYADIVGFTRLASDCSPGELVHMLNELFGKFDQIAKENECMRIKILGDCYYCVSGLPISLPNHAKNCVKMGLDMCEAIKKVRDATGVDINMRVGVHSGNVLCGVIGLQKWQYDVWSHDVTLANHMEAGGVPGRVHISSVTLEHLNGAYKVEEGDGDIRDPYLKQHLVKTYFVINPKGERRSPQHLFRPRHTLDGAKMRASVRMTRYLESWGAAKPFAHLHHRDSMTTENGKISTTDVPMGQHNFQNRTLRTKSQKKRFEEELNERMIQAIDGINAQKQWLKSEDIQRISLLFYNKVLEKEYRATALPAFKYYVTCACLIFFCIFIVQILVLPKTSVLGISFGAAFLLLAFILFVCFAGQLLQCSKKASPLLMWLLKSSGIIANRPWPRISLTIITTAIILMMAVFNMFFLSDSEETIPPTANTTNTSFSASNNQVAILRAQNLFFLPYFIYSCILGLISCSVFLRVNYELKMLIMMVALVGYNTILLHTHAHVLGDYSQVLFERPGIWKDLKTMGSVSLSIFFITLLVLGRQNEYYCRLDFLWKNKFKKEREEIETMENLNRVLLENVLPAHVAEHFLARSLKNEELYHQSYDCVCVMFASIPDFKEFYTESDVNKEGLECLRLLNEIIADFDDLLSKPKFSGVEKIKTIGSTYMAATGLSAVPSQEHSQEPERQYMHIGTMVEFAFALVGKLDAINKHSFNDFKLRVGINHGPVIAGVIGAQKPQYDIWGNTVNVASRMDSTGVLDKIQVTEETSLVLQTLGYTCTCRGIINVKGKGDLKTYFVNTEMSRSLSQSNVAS

Row | SMILES | IC50 (type V adenylyl cyclase) [nM] | further results
1 | Nc1ncnc2c1ncn2[C@@H]1C[C@H](CO)[C@@H](C(=O)O)C1 [Compound 10g, (1S,2S,4R)-4-(6-amino-9H-purin-9-yl)-2-(hydroxymethyl)cyclopentanecarboxylic acid] | > 100000 | –
2 | Nc1ncnc2c1ncn2[C@@H]1CC[C@@H](C(=O)NO)C1 [Compound 10, (1R,3R)-3-(6-amino-9H-purin-9-yl)-N-hydroxycyclopentanecarboxamide] | 150 | left ventricle (LV) infarct size [1]: 20%; IC50 [2]: 27000 nM; IC50 [3]: 9630 nM; IC50 (type VI adenylyl cyclase): 250 nM
3 | Nc1ncnc2c1ncn2[C@@H]1O[C@H](CO)[C@@H](O)[C@H]1O [adenosine, Adenosine, reference compound] | – | left ventricle (LV) infarct size [1]: 38%
4 | C[C@H]1C[C@@H](n2cnc3c(N)ncnc32)C[C@@H]1C(=O)NO [Compound 10s, (1S,2S,4R)-4-(6-amino-9H-purin-9-yl)-N-hydroxy-2-methylcyclopentanecarboxamide] | 510 | –
5 | Nc1nc(F)nc2c1ncn2[C@@H]1CC[C@@H](C(=O)NO)C1 [Compound 10j, (1R,3R)-3-(6-amino-2-fluoro-9H-purin-9-yl)-N-hydroxycyclopentanecarboxamide] | 80 | IC50 [2]: 2450 nM; IC50 (type II adenylyl cyclase): 5580 nM; IC50 [3]: 2320 nM; IC50 (type VI adenylyl cyclase): 210 nM
6 | Nc1ncnc2c1nc(C(F)(F)F)n2[C@@H]1CC[C@@H](C(=O)NO)C1 [Compound 10p, (1R,3R)-3-(6-amino-8-(trifluoromethyl)-9H-purin-9-yl)-N-hydroxycyclopentanecarboxamide] | > 300000 | –
7 | Nc1nccc2c1ccn2[C@@H]1CC[C@@H](C(=O)O)C1 [Compound 10e, (1R,3R)-3-(4-amino-1H-pyrrolo[3,2-c]pyridin-1-yl)cyclopentanecarboxylic acid] | > 10000 | –
8 | Nc1ncnc2c1nc(N)n2[C@@H]1CC[C@@H](C(=O)NO)C1 [Compound 10q, (1R,3R)-3-(6,8-diamino-9H-purin-9-yl)-N-hydroxycyclopentanecarboxamide] | > 300000 | –
9 | Nc1ncnc2c1ncn2[C@@H]1C[C@@H](CO)[C@@H](C(=O)NO)C1 [Compound 10i, (1S,2R,4R)-4-(6-amino-9H-purin-9-yl)-N-hydroxy-2-(hydroxymethyl)cyclopentanecarboxamide] | 3100 | –
10 | Nc1ncnc2c1ccn2[C@@H]1CC[C@@H](C(=O)O)C1 [Compound 10c, (1R,3R)-3-(4-amino-7H-pyrrolo[2,3-d]pyrimidin-7-yl)cyclopentanecarboxylic acid] | > 100000 | –
11 | Nc1ncnc2c1nc(O)n2[C@@H]1CC[C@@H](C(=O)NO)C1 [Compound 10r, (1R,3R)-3-(6-amino-8-hydroxy-9H-purin-9-yl)-N-hydroxycyclopentanecarboxamide] | > 300000 | –
12 | Nc1ncnc2c1ncn2[C@@H]1C[C@H](CO)[C@@H](C(=O)NO)C1 [Compound 10h, (1S,2S,4R)-4-(6-amino-9H-purin-9-yl)-N-hydroxy-2-(hydroxymethyl)cyclopentanecarboxamide] | 1900 | IC50 [3]: 18000 nM
13 | Cc1nc2c(N)ncnc2n1[C@@H]1CC[C@@H](C(=O)NO)C1 [Compound 10o, (1R,3R)-3-(6-amino-8-methyl-9H-purin-9-yl)-N-hydroxycyclopentanecarboxamide] | > 300000 | –
14 | C[C@H]1C[C@@H](n2cnc3c(N)nc(F)nc32)C[C@@H]1C(=O)NO [Compound 10t] | 130 | –
15 | Nc1nc(O)nc2c1ncn2[C@@H]1CC[C@@H](C(=O)NO)C1 [Compound 10n, (1R,3R)-3-(6-amino-2-hydroxy-9H-purin-9-yl)-N-hydroxycyclopentanecarboxamide] | > 300000 | –
16 | Nc1ncnc2c1ccn2[C@@H]1CC[C@@H](C(=O)NO)C1 [Compound 10d, (1R,3R)-3-(4-amino-7H-pyrrolo[2,3-d]pyrimidin-7-yl)-N-hydroxycyclopentanecarboxamide] | 980 | –
17 | Nc1nc(C(F)(F)F)nc2c1ncn2[C@@H]1CC[C@@H](C(=O)NO)C1 [Compound 10l, (1R,3R)-3-(6-amino-2-(trifluoromethyl)-9H-purin-9-yl)-N-hydroxycyclopentanecarboxamide] | 6450 | –
18 | Nc1nc(F)cc2c1ncn2[C@@H]1CC[C@@H](C(=O)NO)C1 [Compound 10v, (1R,3R)-3-(4-amino-6-fluoro-1H-imidazo[4,5-c]pyridin-1-yl)-N-hydroxycyclopentanecarboxamide] | 30 | IC50 [2]: 1890 nM; IC50 (type II adenylyl cyclase): 1110 nM; IC50 [3]: 1140 nM; IC50 (type VI adenylyl cyclase): 30 nM
19 | Cc1nc(N)c2ncn([C@@H]3CC[C@@H](C(=O)NO)C3)c2n1 [Compound 10k, (1R,3R)-3-(6-amino-2-methyl-9H-purin-9-yl)-N-hydroxycyclopentanecarboxamide] | 4890 | –
20 | Nc1nccc2c1ncn2[C@@H]1CC[C@@H](C(=O)NO)C1 [Compound 10b, (1R,3R)-3-(4-amino-1H-imidazo[4,5-c]pyridin-1-yl)-N-hydroxycyclopentanecarboxamide] | 290 | IC50 [3]: 8500 nM
21 | Nc1nc(N)c2ncn([C@@H]3CC[C@@H](C(=O)NO)C3)c2n1 [Compound 10m, (1R,3R)-3-(2,6-diamino-9H-purin-9-yl)-N-hydroxycyclopentanecarboxamide] | 3500 | –
22 | Nc1nccc2c1ncn2[C@@H]1CC[C@@H](C(=O)O)C1 [Compound 10a, (1R,3R)-3-(4-amino-1H-imidazo[4,5-c]pyridin-1-yl)cyclopentanecarboxylic acid] | > 10000 | –
